The values that follow come from patent publication US11987564B2, “PTPRD inhibitors and uses thereof” (United States Government as represented by the Department …, priority 2021, dated 2024).

Series [1] has as its target T1, PTPN1 (PTP1B) (Homo sapiens, UniProt P18031).
T1 construct: purchased
T1 sequence (P18031 1-435): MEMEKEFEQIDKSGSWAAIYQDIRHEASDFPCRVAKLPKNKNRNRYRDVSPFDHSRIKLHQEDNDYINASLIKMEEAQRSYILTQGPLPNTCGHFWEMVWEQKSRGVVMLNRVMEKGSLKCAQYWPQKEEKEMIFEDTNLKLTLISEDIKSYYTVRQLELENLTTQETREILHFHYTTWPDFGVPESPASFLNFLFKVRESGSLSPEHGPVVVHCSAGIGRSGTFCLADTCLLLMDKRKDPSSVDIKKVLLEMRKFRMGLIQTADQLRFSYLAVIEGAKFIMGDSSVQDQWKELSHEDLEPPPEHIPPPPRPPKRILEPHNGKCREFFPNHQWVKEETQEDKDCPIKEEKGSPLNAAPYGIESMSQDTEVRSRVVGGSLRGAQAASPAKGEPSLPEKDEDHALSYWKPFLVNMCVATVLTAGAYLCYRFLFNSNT
The series is described as follows: pNPP hydrolysis by PTPN1 (PTP1B) phosphatase. Format: biochemical. To be noted: untitled table after Table 4; mean, SEM in wrapped line.

Series [2] addresses PTPRF (Homo sapiens, UniProt P10586). Put plainly: pNPP hydrolysis by recombinant PTPRF phosphatase.
Method: (§2) Phosphatase assays: Data for each assay type (3 wells/experimental condition, read using a Spectromax plate reader) was plotted vs time, and results derived from the slopes of linear regions were reported from triplicate independent experiments.
(§3) For assays of compound ligands that were likely pseudo-irreversible, 18 min preincubations were also added. For work determining the effect of flavonoids on pNPP hydrolysis, a 96 well half-area plate was prepared by first filling each well to be tested with 18 μL of 50 μM pNPP and 25 uL of running buffer, and 2 μL of DMSO containing the desired concentration of flavonoid and/or peptide. PTPRD phosphatase was diluted 1:50 in a dilution buffer.
Series [3] addresses PTPRS (Homo sapiens, UniProt Q13332). Put plainly: pNPP hydrolysis by recombinant PTPRS phosphatase. Format: biochemical. The text has this: (§1) Human […] ([…]-pY-[…]) phosphopeptide (Pierce/ThermoFisher) were synthesized.
Series [4] has as its target T2, PTPRJ (Homo sapiens, UniProt Q12913).
T2 construct: purchased
T2 sequence (Q12913 36-1337): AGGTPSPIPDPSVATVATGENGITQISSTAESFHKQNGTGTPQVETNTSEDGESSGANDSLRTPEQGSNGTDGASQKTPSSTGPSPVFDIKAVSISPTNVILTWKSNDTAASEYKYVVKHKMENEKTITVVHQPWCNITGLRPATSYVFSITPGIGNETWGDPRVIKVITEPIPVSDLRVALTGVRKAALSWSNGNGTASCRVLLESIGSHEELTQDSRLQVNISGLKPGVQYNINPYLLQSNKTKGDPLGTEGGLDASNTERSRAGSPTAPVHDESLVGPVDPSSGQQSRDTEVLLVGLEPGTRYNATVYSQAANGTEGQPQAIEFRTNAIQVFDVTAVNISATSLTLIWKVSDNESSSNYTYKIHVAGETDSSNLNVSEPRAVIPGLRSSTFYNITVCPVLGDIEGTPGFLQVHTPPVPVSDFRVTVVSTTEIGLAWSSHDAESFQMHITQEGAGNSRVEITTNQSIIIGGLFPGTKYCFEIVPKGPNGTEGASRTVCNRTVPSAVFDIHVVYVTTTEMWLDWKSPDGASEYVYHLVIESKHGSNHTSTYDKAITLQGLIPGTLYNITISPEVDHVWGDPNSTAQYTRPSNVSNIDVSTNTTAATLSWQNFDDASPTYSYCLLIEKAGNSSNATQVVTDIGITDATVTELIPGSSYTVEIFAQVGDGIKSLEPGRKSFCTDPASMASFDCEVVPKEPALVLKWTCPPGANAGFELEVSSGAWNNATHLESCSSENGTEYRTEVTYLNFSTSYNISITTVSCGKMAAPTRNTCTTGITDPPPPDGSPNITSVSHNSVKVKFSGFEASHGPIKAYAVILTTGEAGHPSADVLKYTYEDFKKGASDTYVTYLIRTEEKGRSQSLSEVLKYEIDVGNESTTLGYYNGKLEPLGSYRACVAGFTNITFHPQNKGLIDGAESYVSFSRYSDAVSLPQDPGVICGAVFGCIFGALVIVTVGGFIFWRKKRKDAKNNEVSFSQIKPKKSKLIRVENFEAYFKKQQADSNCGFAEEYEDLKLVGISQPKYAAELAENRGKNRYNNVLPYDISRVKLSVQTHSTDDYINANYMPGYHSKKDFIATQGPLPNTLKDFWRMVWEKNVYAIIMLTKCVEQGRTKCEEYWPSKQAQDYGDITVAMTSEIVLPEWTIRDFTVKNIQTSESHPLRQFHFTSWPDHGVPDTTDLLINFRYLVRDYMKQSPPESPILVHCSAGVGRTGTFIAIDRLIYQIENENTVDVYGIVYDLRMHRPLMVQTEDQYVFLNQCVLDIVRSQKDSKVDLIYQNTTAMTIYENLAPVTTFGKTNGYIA
The series is described as follows: pNPP hydrolysis by PTPRJ phosphatase. The format is biochemical.
Source text: as §1

Series [5] concerns wildtype C57BL/6J or PTPRD knockout mice.
Series [6] has as its target recombinant PTPRD (Homo sapiens, UniProt P23468). Put plainly: pNPP hydrolysis by recombinant PTPRD phosphatase.
Method: as §2, §3
Where [7] appears, read: PTPRF IC50, Table 4, mean (SEM) of three independent experiments, * = instability, no valid triplicate.
Setting [8] is: PTPRF IC50, untitled table after Table 4, mean, SEM in wrapped line.
Setting [9] is: Table 4, mean (SEM) of three independent experiments, * = instability, no valid triplicate.
Setting [10] is: untitled table after Table 4, mean, SEM in wrapped line.
Where [11] appears, read: PTPRD IC50, Table 4, mean (SEM) of three independent experiments, * = instability, no valid triplicate.
The mark [12] stands for this setting: PTPRD IC50, untitled table after Table 4, mean, SEM in wrapped line, compounds with PTPRD IC50 <5 μM.

Where two headings read alike, the source gives them in different places.

recombinant PTPRD, sequence (P23468 21-1912): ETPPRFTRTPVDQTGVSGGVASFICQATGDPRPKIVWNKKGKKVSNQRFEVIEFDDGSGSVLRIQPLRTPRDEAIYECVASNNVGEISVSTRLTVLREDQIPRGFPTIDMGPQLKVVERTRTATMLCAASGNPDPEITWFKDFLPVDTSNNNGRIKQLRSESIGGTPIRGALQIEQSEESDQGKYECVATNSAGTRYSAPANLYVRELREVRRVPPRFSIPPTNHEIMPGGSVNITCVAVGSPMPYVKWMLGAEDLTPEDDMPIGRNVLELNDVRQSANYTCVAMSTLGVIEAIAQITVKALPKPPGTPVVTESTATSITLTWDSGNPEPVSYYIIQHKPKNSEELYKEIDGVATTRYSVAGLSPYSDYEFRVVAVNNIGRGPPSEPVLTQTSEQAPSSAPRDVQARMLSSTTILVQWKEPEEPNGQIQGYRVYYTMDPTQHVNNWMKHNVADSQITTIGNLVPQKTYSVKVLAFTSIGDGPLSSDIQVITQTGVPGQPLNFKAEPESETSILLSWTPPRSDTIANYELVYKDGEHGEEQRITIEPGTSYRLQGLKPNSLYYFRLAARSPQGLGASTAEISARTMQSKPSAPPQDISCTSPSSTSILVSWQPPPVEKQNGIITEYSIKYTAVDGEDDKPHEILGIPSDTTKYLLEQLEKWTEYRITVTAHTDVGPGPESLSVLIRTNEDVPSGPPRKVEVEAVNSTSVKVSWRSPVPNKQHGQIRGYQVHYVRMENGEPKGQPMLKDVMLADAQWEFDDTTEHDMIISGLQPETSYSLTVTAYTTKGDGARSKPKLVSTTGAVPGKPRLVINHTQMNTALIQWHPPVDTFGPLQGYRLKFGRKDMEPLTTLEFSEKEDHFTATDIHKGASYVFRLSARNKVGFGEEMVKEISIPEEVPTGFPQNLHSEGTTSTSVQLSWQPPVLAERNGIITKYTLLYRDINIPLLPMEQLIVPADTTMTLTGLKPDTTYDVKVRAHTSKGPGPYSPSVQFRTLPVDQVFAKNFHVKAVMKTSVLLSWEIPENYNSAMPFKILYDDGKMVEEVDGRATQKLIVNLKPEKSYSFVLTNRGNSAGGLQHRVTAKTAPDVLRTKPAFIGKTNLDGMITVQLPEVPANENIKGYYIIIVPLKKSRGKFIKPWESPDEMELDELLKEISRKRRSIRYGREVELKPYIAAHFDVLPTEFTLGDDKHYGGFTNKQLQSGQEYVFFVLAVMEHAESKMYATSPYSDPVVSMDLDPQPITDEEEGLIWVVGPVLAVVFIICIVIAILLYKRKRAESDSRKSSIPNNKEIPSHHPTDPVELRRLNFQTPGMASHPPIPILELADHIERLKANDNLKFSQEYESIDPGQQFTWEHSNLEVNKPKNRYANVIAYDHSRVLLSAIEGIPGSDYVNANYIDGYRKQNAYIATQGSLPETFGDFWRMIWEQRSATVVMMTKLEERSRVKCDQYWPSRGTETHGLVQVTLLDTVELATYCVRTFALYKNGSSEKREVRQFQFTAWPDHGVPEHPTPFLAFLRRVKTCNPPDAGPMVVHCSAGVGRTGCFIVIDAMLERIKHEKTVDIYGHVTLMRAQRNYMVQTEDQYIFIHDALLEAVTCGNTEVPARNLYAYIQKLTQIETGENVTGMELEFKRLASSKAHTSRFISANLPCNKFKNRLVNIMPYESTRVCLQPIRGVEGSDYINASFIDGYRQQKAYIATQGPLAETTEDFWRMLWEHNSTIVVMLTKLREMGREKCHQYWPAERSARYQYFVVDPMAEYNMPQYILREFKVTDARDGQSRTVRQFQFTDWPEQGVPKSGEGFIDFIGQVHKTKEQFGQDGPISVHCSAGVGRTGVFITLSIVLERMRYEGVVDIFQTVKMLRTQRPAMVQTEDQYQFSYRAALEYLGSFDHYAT
PTPRS, sequence (Q13332 30-1948, species assumed): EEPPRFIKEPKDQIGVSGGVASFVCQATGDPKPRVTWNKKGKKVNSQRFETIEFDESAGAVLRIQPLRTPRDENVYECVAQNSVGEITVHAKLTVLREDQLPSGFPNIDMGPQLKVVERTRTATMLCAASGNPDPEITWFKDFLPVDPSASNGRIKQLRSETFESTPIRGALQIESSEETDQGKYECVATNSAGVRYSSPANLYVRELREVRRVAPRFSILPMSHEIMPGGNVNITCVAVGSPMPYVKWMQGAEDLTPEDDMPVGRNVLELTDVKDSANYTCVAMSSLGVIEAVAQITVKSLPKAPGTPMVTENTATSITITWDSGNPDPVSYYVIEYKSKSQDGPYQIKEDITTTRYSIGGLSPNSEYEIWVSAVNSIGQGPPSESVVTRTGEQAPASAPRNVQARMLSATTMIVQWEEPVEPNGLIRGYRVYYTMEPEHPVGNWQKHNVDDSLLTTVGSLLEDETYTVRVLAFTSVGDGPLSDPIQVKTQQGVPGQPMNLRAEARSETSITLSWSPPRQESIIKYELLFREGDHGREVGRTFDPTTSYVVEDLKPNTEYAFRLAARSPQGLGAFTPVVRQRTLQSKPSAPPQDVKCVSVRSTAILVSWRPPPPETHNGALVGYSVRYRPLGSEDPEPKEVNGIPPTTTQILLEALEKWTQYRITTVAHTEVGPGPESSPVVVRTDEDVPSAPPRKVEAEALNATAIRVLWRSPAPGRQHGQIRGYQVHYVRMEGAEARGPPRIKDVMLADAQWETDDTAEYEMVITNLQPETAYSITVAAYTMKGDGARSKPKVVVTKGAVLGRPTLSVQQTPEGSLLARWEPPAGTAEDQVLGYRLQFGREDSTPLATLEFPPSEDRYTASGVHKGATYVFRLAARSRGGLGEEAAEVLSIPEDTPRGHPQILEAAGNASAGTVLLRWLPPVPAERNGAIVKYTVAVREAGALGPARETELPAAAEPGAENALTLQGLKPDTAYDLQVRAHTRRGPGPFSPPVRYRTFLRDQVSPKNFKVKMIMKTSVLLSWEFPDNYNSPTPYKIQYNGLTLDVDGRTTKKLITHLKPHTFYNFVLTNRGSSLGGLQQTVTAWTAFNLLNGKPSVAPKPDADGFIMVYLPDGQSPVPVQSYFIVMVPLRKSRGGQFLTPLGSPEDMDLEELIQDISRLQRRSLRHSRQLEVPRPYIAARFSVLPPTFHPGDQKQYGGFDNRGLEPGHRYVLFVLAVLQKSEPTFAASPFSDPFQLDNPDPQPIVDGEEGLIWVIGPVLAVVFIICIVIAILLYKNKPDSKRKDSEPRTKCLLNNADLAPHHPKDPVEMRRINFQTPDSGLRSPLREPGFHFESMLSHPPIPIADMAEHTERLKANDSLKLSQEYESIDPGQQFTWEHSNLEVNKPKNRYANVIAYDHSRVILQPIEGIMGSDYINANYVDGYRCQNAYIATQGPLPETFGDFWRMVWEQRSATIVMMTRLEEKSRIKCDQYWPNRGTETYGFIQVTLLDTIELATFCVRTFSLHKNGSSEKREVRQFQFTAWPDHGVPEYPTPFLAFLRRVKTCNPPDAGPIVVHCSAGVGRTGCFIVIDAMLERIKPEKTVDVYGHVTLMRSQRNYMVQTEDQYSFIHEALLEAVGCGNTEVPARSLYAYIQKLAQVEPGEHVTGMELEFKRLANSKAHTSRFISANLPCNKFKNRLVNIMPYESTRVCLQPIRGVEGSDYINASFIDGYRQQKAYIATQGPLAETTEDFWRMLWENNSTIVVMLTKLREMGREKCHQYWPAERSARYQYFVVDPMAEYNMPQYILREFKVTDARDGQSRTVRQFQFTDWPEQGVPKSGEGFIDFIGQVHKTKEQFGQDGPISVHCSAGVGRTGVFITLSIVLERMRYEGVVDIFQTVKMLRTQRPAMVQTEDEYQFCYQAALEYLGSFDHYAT

The IC50 is the concentration that gives 50% inhibition. In the case of `COc1c(OCC2CCCC2)cc2c(c1C=O)CC(O)OC2=O` (stereo not shown) [Compound 66, 7-Cyclopentylmethoxy-3-hydroxy-6-methoxy-1-oxo-isochroman-5-carbaldehyde], the IC50 was 119 µM in series [1]; 1.72 µM in series [2] (setting [7]); 1.72 µM in series [2] (setting [8]); 0.61 µM in series [3] (setting [9]); 0.61 µM in series [3] (setting [10]); 29.3 µM in series [4] (setting [9]). In addition, the IC50 in series [4] (setting [10]) stood at 29.3 µM. For the same compound, the “death (or euthanasia) prior to day 3” value in series [5] (400 or 200 mg/kg gavage) is recorded as “none”. The “no observed adverse effect level (NOAEL)” value in series [5] (mouse, single dose p.o., based on weight changes, gross pathology, histopathology, cage behaviors) amounted to 200 mg/kg.

Regarding `COc1c(OCCCCc2ccc(O)cc2O)cc2c(c1C=O)CC(O)OC2=O` (stereo not shown) [Compound 55], the IC50 came to 320 µM in series [1]; 6.8 µM in series [2] (setting [7]); 6.8 µM in series [2] (setting [8]); 4.45 µM in series [6] (setting [11]); 4.45 µM in series [6] (setting [12]); 2.27 µM in series [3] (setting [9]). Moreover, the IC50 worked out at 2.27 µM in series [3] (setting [10]), 55.5 µM in series [4] (setting [9]) and 55.5 µM in series [4] (setting [10]).

On to `COc1c(OCc2ccc(C)cc2)cc2c(c1C=O)CC(O)OC2=O` (stereo not shown) [Compound 29, 3-Hydroxy-6-methoxy-7-((4-methylbenzyl)oxy)-1-oxoisochromane-5-carbaldehyde], for which the IC50 was found to be 148 µM in series [1]; 6.57 µM in series [2] (setting [7]); 6.57 µM in series [2] (setting [8]); 3.8 µM in series [6] (setting [11]); 3.8 µM in series [6] (setting [12]); 3.58 µM in series [3] (setting [9]). The IC50 amounted to 3.58 µM in series [3] (setting [10]), 37.7 µM in series [4] (setting [9]) and 37.7 µM in series [4] (setting [10]).

Take `COc1c(OCC2CCC2)cc2c(c1C=O)CC(O)OC2=O` (stereo not shown) [Compound 65, 7-Cyclobutylmethoxy-3-hydroxy-6-methoxy-1-oxo-isochroman-5-carbaldehyde]: the IC50 in series [1] was determined as 24.1 µM; in series [2] (setting [7]) it was 3.03 µM; in series [2] (setting [8]) it was 4.52 µM; in series [6] (setting [12]), 2.76 µM; in series [3] (setting [9]), 3.36 µM; in series [3] (setting [10]), 2.85 µM. This compound gave an IC50 in series [4] (setting [10]) of 32.7 µM.

Regarding `CCCCOc1cc2c(c(C=O)c1OC)CC(O)OC2=O` (stereo not shown) [Compound 1, reference compound], the IC50 in series [1] came to 215 µM; in series [2] (setting [7]), 3.95 µM; in series [2] (setting [8]), 3.95 µM; in series [6] (read-out: PTPRD IC50, Table 4, mean (SEM) of three independent experiments, * = instability, no valid triplicate), 2.27 µM; in series [6] (read-out: PTPRD IC50, untitled table after Table 4, mean, SEM in wrapped line, compounds with PTPRD IC50 <5 μM) it was 2.27 µM; in series [3] (setting [9]), 1.27 µM. Moreover, the IC50 was determined as 1.27 µM in series [3] (setting [10]), 27.4 µM in series [4] (setting [9]) and 27.4 µM in series [4] (setting [10]).

Consider `COc1c(OCc2ccc(Oc3ccccc3)cc2)cc2c(c1C=O)CC(O)OC2=O` (stereo not shown) [Compound 43, 3-Hydroxy-6-methoxy-1-oxo-7-((4-phenoxybenzyl)oxy)isochromane-5-carbaldehyde], for which the concentration for half-maximal inhibition (IC50) in series [1] amounted to 16.7 µM; in series [2] (setting [7]), 3.93 µM; in series [2] (setting [8]), 3.93 µM; in series [6] (setting [11]), 1.6 µM; in series [6] (setting [12]) it was 1.6 µM; in series [3] (setting [9]), 1.34 µM. For the same compound, the IC50 in series [3] (setting [10]) stood at 1.34 µM; in series [4] (setting [9]) it was 28.4 µM; in series [4] (setting [10]), 28.4 µM.

Regarding `COc1c(OCCC(C)C)cc2c(c1C=O)CC(O)OC2=O` (stereo not shown) [Compound 58, 3-Hydroxy-7-(isopentyloxy)-6-methoxy-1-oxoisochromane-5-carbaldehyde], the IC50 in series [1] stood at 121 µM; in series [2] (setting [7]), 3.87 µM; in series [2] (setting [8]) it was 3.87 µM; in series [6] (setting [11]) it was 2.82 µM; in series [6] (setting [12]), 2.82 µM; in series [3] (setting [9]) it was 2.76 µM. Further, the half-inhibitory concentration (IC50) in series [3] (setting [10]) turned out to be 2.76 µM; in series [4] (setting [9]) it was 51.9 µM; in series [4] (setting [10]) it was 51.9 µM.
